Data published in ChEMBL document CHEMBL1949656, “Characterization of a 1,4-disubstituted 1,2,3-triazole binding to T box antiterminator RNA” (Bioorg Med Chem, 2012).
Activity calls are given as the source filed them. No cut-off for these calls is given here.

Columns and labels:
Nucleic Acid [1] = test: Binding affinity to AM1A T box antiterminator model RNA assessed as change in melting temperature at 100 uM by UV-thermal denaturation method; type: nucleic-acid assay
Nucleic Acid [2] = test: Stabilization of AM1A T box antiterminator model RNA assessed as reduction in flexibility at U6-C12 bulge region of RNA after 40 hrs by autoradiography based in-line probing assay; type: nucleic-acid assay
Nucleic Acid [3] = test: Binding affinity to C11U T box antiterminator model RNA at 100 to 300 uM after 130 mins by FRET assay; type: nucleic-acid assay
Nucleic Acid [4] = test: Binding affinity to AM1A T box antiterminator model RNA at 100 to 300 uM after 130 mins by FRET assay; type: nucleic-acid assay
Nucleic Acid [5] = test: Binding affinity to AM1A T box antiterminator model RNA assessed as melting temperature at 100 uM by UV-thermal denaturation method (reference value: 51 deg C)
Nucleic Acid [6] = test: Stabilization of AM1A T box antiterminator model RNA assessed as effect on flexibility of RNA after 40 hrs by autoradiography based in-line probing assay; type: nucleic-acid assay

- Tm(app) (Nucleic Acid [1]): 69 °C
- Activity (Nucleic Acid [2]): Active
- Kd (Nucleic Acid [3]): 59 µM
- Kd (Nucleic Acid [4]): 56 µM
- Tm (Nucleic Acid [5]): 52 °C
- Activity (Nucleic Acid [6]): Active
SMILES: CN(CCCc1ccccc1)Cc1cn(CC(O)COC(=O)NCc2ccccc2)nn1 (stereo unspecified)
